The source of these data is US10738056B2 (Aduro BioTech, Inc., priority 2017, dated 2020).

The target in assay [1] is Human cGAS amino acids 155-522 (Homo sapiens (Human), UniProt Q8N884). Briefly: cGAS biochemical activity assay (ATP remaining, Kinase-Glo Max luminescence). As to conditions: human cGAS 155-522, ATP remaining (Kinase-Glo Max); read-out: cGAS IC50.
For assay [2], the system named is cGAS/STING pathway in THP1 cells. Briefly: THP1 cell-based cGAS/STING pathway activity assay (IRF-3-linked luciferase reporter). As to conditions: Homo sapiens, THP-1. An outline of the steps: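 THP1 cells carrying an IRF-3-driven luciferase reporter were read across a range of compound concentrations, and IC50 values were derived from these concentration responses; the assay upper limit was 100 μM.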
In general terms: Reporter assays use an easily measured gene product as a stand-in for the process of interest.

Assay [3] has as its system RANTES/CCL5 secretion by Trex1-KO BMM. Briefly: Inhibition of RANTES/CCL5 secretion by Trex1-KO bone marrow-derived macrophages. The class given is cell-based, mice. Details: key to BMM IC50 R (RANTES): A: an IC50 value less than 5 μM; B: an IC50 value between 5 and 20 μM; where an IC50 value could not be calculated from the data. Conditions: RANTES secretion; for IC50: Mus musculus, Macrophage, read-out: BMM IC50 R (RANTES). On the procedure: (§1) A cellular assay can be used to asses the compounds of the invention for their ability to inhibit cytokine production. Bone marrow macrophages harvested from mice can be used to determine response as a function of compound concentration.
(§2) The inhibition of secreted cytokine was measured in bone marrow-derived macrophages (BMMs) from diseased mice to evaluate the potency of compounds of the invention as described herein. […] To derive bone marrow macrophages, marrow extracted from the femurs and tibias were harvested from Trex1-KO mice was cultured in growth media supplemented with macrophage colony-stimulating factor (M-CSF). Differentiated BMM were harvested and frozen for subsequent experimentation. For treatment with compound C1089 (see Example 13), a frozen stock of Trex1-KO BMM was thawed and 1×10^5 cells were plated in 96 well format. BMMs were treated with a dilution series of C1089 and incubated overnight at 37° C. 5% CO2, at which point cellular supernatants were harvested and stored at −80° C. for subsequent analysis. The media used for this dilution series was without FBS. Remaining cells were evaluated for viability using Cell Titer Glo 2.0 kit according to the manufacturer instructions. BMM supernatants were evaluated for the secreted cytokine […] (RANTES/CCL5) or for secreted cytokine monocyte chemoattractant protein 1 (MCP-1/CCL2) using cytometric bead array mouse Flex Set kits (BD Biosciences). Cytokine concentration was calculated from a standard curve and normalized to vehicle (DMSO) treated cells.

Assay [4] relates to MCP-1/CCL2 secretion by Trex1-KO BMM. The assay is described as follows: Inhibition of MCP-1/CCL2 secretion by Trex1-KO bone marrow-derived macrophages. The format is cell-based, mice. Details: key to BMM IC50 M (MCP-1): A: an IC50 value less than 5 μM; B: an IC50 value between 5 and 20 μM; where an IC50 value could not be calculated from the data. As to conditions: MCP-1 secretion; for IC50: Mus musculus, Macrophage, read-out: BMM IC50 M (MCP-1). On the procedure: as §1, §2

Chain of Human cGAS amino acids 155-522 (Q8N884 157-522): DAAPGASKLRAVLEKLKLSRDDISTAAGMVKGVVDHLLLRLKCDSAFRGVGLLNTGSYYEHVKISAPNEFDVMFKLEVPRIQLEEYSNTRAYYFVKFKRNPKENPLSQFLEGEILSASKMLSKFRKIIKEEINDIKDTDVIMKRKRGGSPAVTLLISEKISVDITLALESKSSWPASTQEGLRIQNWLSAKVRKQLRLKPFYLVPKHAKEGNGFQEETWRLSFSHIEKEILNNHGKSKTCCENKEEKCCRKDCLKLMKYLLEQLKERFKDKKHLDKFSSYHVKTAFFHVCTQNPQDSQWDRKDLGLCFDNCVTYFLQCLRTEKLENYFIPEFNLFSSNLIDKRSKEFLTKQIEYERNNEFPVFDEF

For `COc1cccc2oc(-c3c(C(F)(F)F)[nH]c4c(-c5ccccc5)c(C#N)nn4c3=O)nc12` [Compound C1118, 6-(4-methoxybenzo[d]oxazol-2-yl)-7-oxo-3-phenyl-5-(trifluoromethyl)-4,7-dihydropyrazolo[1,5-a]pyrimidine-2-carbonitrile], the figures for the IC50 in assay [1], in assay [2] and in assay [3] were below 20 µM, below 20 µM and below 5 µM, respectively. For the same compound, the “BMM IC50 M (MCP-1)” value in assay [4] is “C”.

As to `COc1cccc2oc(-c3c(C)[nH]c4c(-c5ccccc5F)c(C(F)(F)F)nn4c3=O)nc12` [Compound C1091, 3-(2-fluorophenyl)-6-(4-methoxybenzo[d]oxazol-2-yl)-5-methyl-2-(trifluoromethyl)pyrazolo[1,5-a]pyrimidin-7(4H)-one], the IC50 in assay [1] and in assay [2] was below 20 µM each time. For the same compound, the “BMM IC50 R (RANTES)” value in assay [3] was “C”. Also, the “BMM IC50 M (MCP-1)” value in assay [4] is reported as “C”.

As for `COc1c(Br)ccc2oc(-c3c(C)[nH]c4c(-c5ccccc5)c(C(F)(F)F)nn4c3=O)nc12` [Compound C1082, 6-(5-bromo-4-methoxybenzo[d]oxazol-2-yl)-5-methyl-3-phenyl-2-(trifluoromethyl)pyrazolo[1,5-a]pyrimidin-7(4H)-one], the IC50 in assay [1] and in assay [2] was below 20 µM in each case. For the same compound, the “BMM IC50 R (RANTES)” value in assay [3] is reported as “C”. In addition, the “BMM IC50 M (MCP-1)” value in assay [4] is on record as “C”.

With `COc1cc(Cl)cc(NC(=O)c2c(C)[nH]c3c(-c4ccccc4)c(C(F)(F)F)nn3c2=O)c1` [Compound A1134, N-(3-chloro-5-methoxyphenyl)-5-methyl-7-oxo-3-phenyl-2-(trifluoromethyl)-4,7-dihydropyrazolo[1,5-a]pyrimidine-6-carboxamide], the IC50 (in general, the point on the concentration scale where inhibition reaches its midpoint) in assay [1] was below 20 µM; in assay [2], below 20 µM; in assay [3], below 5 µM; in assay [4], below 5 µM.

Take `Cc1[nH]c2c(-c3ccccc3)c(C(F)(F)F)nn2c(=O)c1-c1nc2c(OCc3ccccc3)cccc2o1` [Compound C1073, 6-(4-(benzyloxy)benzo[d]oxazol-2-yl)-5-methyl-3-phenyl-2-(trifluoromethyl)pyrazolo[1,5-a]pyrimidin-7(4H)-one]: the IC50 in assay [1] and in assay [2] was below 20 µM throughout. For the same compound, in assay [3], the “BMM IC50 R (RANTES)” value is recorded as “C”. The “BMM IC50 M (MCP-1)” value in assay [4] is recorded as “C”.

For the compound `COc1cc(N)cc2oc(-c3c(C)[nH]c4c(-c5ccccc5)c(C#N)nn4c3=O)nc12` [Compound C1175, 6-(6-amino-4-methoxybenzo[d]oxazol-2-yl)-5-methyl-7-oxo-3-phenyl-4,7-dihydropyrazolo[1,5-a]pyrimidine-2-carbonitrile], the IC50 was below 20 µM in assay [1] and 20 to 100 µM in assay [2]. In addition, in assay [3], the “BMM IC50 R (RANTES)” value was “C”. Also, the “BMM IC50 M (MCP-1)” value in assay [4] is “C”.

Turning to `CCOC(=O)C1CC=C(c2[nH]c3c(-c4ccccc4)c(C(F)(F)F)nn3c(=O)c2-c2nc3c(OC)cccc3o2)CC1` (stereo not shown) [Compound C1233, ethyl 4-(6-(4-methoxybenzo[d]oxazol-2-yl)-7-oxo-3-phenyl-2-(trifluoromethyl)-4,7-dihydropyrazolo[1,5-a]pyrimidin-5-yl)cyclohex-3-ene-1-carboxylate], the IC50 in assay [1] and in assay [2] was below 20 µM throughout. Also, the “BMM IC50 R (RANTES)” value in assay [3] is on record as “C”. In addition, the “BMM IC50 M (MCP-1)” value in assay [4] was “C”.

Consider `Cc1[nH]c2c(-c3ccccc3)c(C(F)(F)F)nn2c(=O)c1-c1nc2c(OCC3CC3)cccc2o1` [Compound C1045, 6-(4-(cyclopropylmethoxy)benzo[d]oxazol-2-yl)-5-methyl-3-phenyl-2-(trifluoromethyl)pyrazolo[1,5-a]pyrimidin-7(4H)-one], for which the IC50 in assay [1] was below 20 µM; in assay [2], below 20 µM; in assay [3] it was 5 to 20 µM. The “BMM IC50 M (MCP-1)” value in assay [4] is “C”.

Turning to `COc1cc(Br)cc(NC(=O)c2c(C)[nH]c3c(-c4ccccc4)c(C(F)(F)F)nn3c2=O)c1` [Compound A1129, N-(3-bromo-5-methoxyphenyl)-5-methyl-7-oxo-3-phenyl-2-(trifluoromethyl)-4,7-dihydropyrazolo[1,5-a]pyrimidine-6-carboxamide], the IC50 in assay [1] was below 20 µM; in assay [2], 20 to 100 µM; in assay [4], 5 to 20 µM. The “BMM IC50 R (RANTES)” value in assay [3] is reported as “C”.

`Cc1[nH]c2c(-c3ccccc3)c(C(F)(F)F)nn2c(=O)c1-c1nc2c(Cl)cccc2o1` [Compound C1055, 6-(4-chlorobenzo[d]oxazol-2-yl)-5-methyl-3-phenyl-2-(trifluoromethyl)pyrazolo[1,5-a]pyrimidin-7(4H)-one]: the IC50 in assay [1] and in assay [2] was below 20 µM each time. In assay [3], the “BMM IC50 R (RANTES)” value is given as “C”. Moreover, the “BMM IC50 M (MCP-1)” value in assay [4] is given as “C”.

Turning to `COc1cc(N)cc2oc(-c3c(C)[nH]c4c(-c5ccccc5)c(C(F)(F)F)nn4c3=O)nc12` [Compound C1123, 6-(6-amino-4-methoxybenzo[d]oxazol-2-yl)-5-methyl-3-phenyl-2-(trifluoromethyl)pyrazolo[1,5-a]pyrimidin-7(4H)-one], the results for the IC50 in assay [1] and in assay [2] were below 20 µM and 20 to 100 µM, respectively. In addition, in assay [3], the “BMM IC50 R (RANTES)” value is “C”. The “BMM IC50 M (MCP-1)” value in assay [4] is “C”.

For the compound `Cc1[nH]c2c(-c3ccccc3)c(C(F)(F)F)nn2c(=O)c1C(=O)Nc1cc(Br)cc(CN(C)C)c1` [Compound A1139, N-(3-bromo-5-((dimethylamino)methyl)phenyl)-5-methyl-7-oxo-3-phenyl-2-(trifluoromethyl)-4,7-dihydropyrazolo[1,5-a]pyrimidine-6-carboxamide], the IC50 in assay [1] and in assay [2] was below 20 µM throughout. In addition, in assay [3], the “BMM IC50 R (RANTES)” value is “C”. In addition, the “BMM IC50 M (MCP-1)” value in assay [4] was “C”.

As to `Cc1[nH]c2c(-c3ccccc3)c(C(F)(F)F)nn2c(=O)c1-c1nc2c(C(N)=O)cccc2o1` [Compound C1074, 2-(5-methyl-7-oxo-3-phenyl-2-(trifluoromethyl)-4,7-dihydropyrazolo[1,5-a]pyrimidin-6-yl)benzo[d]oxazole-4-carboxamide], the results for the IC50 in assay [1] and in assay [2] were 20 to 250 µM and above 100 µM, respectively. In assay [3], the “BMM IC50 R (RANTES)” value is “C”. Moreover, the “BMM IC50 M (MCP-1)” value in assay [4] is recorded as “C”.

As for `COc1ccc(Br)c2oc(-c3c(C)[nH]c4c(-c5ccccc5)c(C(F)(F)F)nn4c3=O)nc12` [Compound C1081, 6-(7-bromo-4-methoxybenzo[d]oxazol-2-yl)-5-methyl-3-phenyl-2-(trifluoromethyl)pyrazolo[1,5-a]pyrimidin-7(4H)-one], the IC50 in assay [1] was below 20 µM; in assay [2], below 20 µM; in assay [3], 5 to 20 µM; in assay [4], 5 to 20 µM.

As for `COc1cc(Cl)cc2oc(-c3c(C)[nH]c4c(-c5ccccc5)c(C(F)(F)F)nn4c3=O)nc12` [Compound C1105, 6-(6-chloro-4-methoxybenzo[d]oxazol-2-yl)-5-methyl-3-phenyl-2-(trifluoromethyl)pyrazolo[1,5-a]pyrimidin-7(4H)-one], the IC50 is below 20 µM in assay [1], below 20 µM in assay [2], below 5 µM in assay [3] and 5 to 20 µM in assay [4].

For `COc1nccc2oc(-c3c(C)[nH]c4c(-c5ccccc5)c(C#N)nn4c3=O)nc12` [Compound C1167, 6-(4-methoxyoxazolo[4,5-c]pyridin-2-yl)-5-methyl-7-oxo-3-phenyl-4,7-dihydropyrazolo[1,5-a]pyrimidine-2-carbonitrile], the 50% inhibitory concentration (IC50) in assay [1] and in assay [2] was below 20 µM each time. Also, the “BMM IC50 R (RANTES)” value in assay [3] is listed as “C”. Moreover, in assay [4], the “BMM IC50 M (MCP-1)” value is given as “C”.
